What was measured:
Experiment in all cases: biochemical
Parameters in all cases: species or system human cell line lysate
[1] = target: Isoform 4 of TRAF2 and NCK-interacting protein kinase ; TNIK ; Q9UKE5-4 (Homo sapiens, UniProt Q9UKE5)
[2] = target: High affinity nerve growth factor receptor ; NTRK1 ; P04629 (Homo sapiens, UniProt P04629)
[3] = target: Calcium/calmodulin-dependent protein kinase kinase 2 ; CAMKK2 ; Q96RR4 (Homo sapiens, UniProt Q96RR4)
[4] = target: Epithelial discoidin domain-containing receptor 1 ; DDR1 ; Q08345 (Homo sapiens, UniProt Q08345)
[5] = target: Cyclin-dependent kinase 12 ; CDK12 ; Q9NYV4 (Homo sapiens, UniProt Q9NYV4)
[6] = target: Cyclin-dependent kinase 16 ; CDK16 ; Q00536 (Homo sapiens, UniProt Q00536)
[7] = target: T1, Discoidin domain-containing receptor 2 ; DDR2 ; Q16832 (Homo sapiens, UniProt Q16832)
T1 sequence (Q16832 1-855): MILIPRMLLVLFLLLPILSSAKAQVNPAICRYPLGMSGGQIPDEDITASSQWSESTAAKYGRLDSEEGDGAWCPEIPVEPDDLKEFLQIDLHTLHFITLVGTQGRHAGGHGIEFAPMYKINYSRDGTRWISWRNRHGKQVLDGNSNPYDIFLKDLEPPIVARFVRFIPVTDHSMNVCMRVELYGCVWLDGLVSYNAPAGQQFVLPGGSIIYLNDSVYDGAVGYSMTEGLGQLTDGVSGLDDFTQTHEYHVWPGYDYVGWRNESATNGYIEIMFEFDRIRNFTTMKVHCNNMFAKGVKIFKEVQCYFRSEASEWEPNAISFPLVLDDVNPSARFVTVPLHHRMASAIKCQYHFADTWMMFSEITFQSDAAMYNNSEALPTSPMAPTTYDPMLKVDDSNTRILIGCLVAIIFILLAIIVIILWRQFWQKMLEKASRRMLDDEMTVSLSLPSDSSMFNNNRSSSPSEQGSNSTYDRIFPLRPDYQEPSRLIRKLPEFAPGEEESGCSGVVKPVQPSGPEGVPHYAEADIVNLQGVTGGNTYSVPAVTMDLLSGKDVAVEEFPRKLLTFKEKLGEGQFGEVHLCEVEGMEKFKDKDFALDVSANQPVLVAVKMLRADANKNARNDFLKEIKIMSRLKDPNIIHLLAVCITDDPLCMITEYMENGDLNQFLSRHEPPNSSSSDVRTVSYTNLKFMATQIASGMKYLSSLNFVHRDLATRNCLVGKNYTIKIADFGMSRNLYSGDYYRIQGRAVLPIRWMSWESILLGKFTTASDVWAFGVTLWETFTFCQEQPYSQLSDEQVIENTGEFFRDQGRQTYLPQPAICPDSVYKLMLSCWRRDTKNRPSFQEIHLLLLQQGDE

[8] = target: Isoform 2 of Cyclin-dependent kinase 17 ; CDK17 ; Q00537-2 (Homo sapiens, UniProt Q00537)
[9] = target: Cyclin-dependent kinase 6 ; CDK6 ; Q00534 (Homo sapiens, UniProt Q00534)
[10] = target: Cyclin-dependent-like kinase 5 ; CDK5 ; Q00535 (Homo sapiens, UniProt Q00535)
[11] = target: Cyclin-dependent kinase 1 ; CDK1 ; P06493 (Homo sapiens, UniProt P06493)
[12] = target: Cyclin-dependent kinase 10 ; CDK10 ; Q15131 (Homo sapiens, UniProt Q15131)
[13] = target: Cyclin-dependent kinase 7 ; CDK7 ; P50613 (Homo sapiens, UniProt P50613)
Cyclin-dependent kinase 7 ; CDK7 ; P50613, sequence (P50613 whole entry, one chain of several): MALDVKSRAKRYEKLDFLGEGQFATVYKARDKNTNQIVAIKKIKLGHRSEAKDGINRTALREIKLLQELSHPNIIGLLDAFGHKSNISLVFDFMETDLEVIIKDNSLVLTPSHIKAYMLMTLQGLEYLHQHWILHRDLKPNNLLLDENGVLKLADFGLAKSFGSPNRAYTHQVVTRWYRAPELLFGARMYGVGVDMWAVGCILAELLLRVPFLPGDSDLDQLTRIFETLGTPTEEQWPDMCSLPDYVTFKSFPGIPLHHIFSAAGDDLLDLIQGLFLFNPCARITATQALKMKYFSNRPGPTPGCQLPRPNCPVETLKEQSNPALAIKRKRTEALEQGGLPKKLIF

Cyclin-dependent kinase 6 ; CDK6 ; Q00534, sequence (Q00534 whole entry, one chain of several): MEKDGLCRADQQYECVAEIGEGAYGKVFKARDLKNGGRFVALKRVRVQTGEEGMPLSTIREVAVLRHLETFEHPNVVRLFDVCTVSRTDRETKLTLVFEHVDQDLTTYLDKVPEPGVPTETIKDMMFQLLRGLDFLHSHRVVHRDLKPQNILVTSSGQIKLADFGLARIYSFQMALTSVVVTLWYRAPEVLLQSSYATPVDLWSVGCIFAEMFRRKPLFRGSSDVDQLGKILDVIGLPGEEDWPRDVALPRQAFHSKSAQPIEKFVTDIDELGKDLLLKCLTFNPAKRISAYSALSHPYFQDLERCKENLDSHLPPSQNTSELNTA
Cyclin-dependent kinase 12 ; CDK12 ; Q9NYV4, sequence (Q9NYV4 whole entry, one chain of several): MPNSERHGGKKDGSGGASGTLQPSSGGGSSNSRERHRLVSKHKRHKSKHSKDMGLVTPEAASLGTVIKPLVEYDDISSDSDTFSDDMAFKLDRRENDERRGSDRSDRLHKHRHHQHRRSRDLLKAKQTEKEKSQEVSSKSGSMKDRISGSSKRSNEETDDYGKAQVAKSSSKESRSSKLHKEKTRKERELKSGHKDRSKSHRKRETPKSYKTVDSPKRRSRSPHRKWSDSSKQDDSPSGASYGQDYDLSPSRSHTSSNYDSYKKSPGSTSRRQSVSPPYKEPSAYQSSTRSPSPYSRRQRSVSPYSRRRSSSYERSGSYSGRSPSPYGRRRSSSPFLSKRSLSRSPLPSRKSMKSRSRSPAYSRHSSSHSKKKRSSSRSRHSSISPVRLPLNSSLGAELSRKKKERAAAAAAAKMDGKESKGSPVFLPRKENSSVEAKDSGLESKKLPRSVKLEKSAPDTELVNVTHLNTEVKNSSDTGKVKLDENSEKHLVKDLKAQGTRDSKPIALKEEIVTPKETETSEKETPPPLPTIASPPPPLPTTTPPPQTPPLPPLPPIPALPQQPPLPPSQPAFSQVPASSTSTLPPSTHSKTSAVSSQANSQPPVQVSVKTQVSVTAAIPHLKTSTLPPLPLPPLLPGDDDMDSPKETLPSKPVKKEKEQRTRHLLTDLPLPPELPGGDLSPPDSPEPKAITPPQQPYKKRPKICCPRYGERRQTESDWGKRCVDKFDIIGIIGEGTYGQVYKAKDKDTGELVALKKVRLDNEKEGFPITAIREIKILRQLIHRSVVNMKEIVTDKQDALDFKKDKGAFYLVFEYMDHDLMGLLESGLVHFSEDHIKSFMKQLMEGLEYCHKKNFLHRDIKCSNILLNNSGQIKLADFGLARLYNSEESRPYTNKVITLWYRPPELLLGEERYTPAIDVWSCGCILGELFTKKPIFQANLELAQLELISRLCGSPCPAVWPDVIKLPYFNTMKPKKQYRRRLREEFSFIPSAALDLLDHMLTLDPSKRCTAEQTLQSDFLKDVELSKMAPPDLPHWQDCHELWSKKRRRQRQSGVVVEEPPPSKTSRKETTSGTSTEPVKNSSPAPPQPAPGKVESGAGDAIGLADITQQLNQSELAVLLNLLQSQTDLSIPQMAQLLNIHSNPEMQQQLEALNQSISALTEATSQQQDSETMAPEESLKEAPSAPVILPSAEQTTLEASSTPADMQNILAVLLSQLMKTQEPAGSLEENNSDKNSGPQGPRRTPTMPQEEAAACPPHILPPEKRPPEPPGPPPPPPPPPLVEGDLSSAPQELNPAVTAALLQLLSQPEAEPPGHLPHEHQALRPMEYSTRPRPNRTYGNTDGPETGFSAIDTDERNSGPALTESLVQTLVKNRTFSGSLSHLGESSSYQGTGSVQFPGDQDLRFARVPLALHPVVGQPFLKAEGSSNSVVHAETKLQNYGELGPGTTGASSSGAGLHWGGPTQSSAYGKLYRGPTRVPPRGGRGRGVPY
Cyclin-dependent-like kinase 5 ; CDK5 ; Q00535, sequence (Q00535 whole entry, one chain of several): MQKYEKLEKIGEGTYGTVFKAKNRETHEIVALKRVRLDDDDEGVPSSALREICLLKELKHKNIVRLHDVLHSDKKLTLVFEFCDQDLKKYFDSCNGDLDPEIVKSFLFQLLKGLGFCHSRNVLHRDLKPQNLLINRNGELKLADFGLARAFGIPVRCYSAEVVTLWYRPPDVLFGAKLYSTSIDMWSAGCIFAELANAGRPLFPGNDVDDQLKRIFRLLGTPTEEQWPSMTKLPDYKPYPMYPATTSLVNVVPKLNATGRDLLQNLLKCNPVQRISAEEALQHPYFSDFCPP
Calcium/calmodulin-dependent protein kinase kinase 2 ; CAMKK2 ; Q96RR4, sequence (Q96RR4 whole entry, the tested form may be a part, one chain of several): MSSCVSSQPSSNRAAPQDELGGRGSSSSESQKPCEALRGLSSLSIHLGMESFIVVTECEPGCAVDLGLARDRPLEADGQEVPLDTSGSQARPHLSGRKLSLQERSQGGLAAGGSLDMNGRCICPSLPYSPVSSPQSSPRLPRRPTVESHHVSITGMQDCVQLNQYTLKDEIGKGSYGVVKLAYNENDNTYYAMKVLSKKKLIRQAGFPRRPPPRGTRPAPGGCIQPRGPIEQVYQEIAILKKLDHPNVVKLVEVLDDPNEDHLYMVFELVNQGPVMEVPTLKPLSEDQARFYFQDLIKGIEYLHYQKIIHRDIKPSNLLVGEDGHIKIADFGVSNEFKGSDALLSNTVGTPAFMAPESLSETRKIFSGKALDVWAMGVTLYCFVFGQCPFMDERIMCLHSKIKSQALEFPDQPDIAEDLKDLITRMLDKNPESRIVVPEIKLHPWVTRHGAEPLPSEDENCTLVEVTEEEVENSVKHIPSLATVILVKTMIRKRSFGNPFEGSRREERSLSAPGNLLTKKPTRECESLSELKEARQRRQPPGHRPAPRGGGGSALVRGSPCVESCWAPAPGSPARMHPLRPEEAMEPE
Cyclin-dependent kinase 16 ; CDK16 ; Q00536, sequence (Q00536 whole entry, the tested form may be a part, one chain of several): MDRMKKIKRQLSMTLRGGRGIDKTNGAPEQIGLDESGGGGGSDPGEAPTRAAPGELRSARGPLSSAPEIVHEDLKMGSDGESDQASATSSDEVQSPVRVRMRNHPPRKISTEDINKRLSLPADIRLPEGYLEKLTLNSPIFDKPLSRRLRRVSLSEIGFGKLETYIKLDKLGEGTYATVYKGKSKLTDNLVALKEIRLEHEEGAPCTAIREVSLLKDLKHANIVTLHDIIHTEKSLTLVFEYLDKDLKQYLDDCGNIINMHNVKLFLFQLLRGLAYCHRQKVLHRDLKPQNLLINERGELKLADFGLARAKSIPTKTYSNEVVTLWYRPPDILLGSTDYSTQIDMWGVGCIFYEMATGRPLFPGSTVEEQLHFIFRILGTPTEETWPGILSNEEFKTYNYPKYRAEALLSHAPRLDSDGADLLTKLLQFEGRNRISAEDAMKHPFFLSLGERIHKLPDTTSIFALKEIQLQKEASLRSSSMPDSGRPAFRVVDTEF
Isoform 4 of TRAF2 and NCK-interacting protein kinase ; TNIK ; Q9UKE5-4, sequence (Q9UKE5 whole entry, canonical isoform, one chain of several): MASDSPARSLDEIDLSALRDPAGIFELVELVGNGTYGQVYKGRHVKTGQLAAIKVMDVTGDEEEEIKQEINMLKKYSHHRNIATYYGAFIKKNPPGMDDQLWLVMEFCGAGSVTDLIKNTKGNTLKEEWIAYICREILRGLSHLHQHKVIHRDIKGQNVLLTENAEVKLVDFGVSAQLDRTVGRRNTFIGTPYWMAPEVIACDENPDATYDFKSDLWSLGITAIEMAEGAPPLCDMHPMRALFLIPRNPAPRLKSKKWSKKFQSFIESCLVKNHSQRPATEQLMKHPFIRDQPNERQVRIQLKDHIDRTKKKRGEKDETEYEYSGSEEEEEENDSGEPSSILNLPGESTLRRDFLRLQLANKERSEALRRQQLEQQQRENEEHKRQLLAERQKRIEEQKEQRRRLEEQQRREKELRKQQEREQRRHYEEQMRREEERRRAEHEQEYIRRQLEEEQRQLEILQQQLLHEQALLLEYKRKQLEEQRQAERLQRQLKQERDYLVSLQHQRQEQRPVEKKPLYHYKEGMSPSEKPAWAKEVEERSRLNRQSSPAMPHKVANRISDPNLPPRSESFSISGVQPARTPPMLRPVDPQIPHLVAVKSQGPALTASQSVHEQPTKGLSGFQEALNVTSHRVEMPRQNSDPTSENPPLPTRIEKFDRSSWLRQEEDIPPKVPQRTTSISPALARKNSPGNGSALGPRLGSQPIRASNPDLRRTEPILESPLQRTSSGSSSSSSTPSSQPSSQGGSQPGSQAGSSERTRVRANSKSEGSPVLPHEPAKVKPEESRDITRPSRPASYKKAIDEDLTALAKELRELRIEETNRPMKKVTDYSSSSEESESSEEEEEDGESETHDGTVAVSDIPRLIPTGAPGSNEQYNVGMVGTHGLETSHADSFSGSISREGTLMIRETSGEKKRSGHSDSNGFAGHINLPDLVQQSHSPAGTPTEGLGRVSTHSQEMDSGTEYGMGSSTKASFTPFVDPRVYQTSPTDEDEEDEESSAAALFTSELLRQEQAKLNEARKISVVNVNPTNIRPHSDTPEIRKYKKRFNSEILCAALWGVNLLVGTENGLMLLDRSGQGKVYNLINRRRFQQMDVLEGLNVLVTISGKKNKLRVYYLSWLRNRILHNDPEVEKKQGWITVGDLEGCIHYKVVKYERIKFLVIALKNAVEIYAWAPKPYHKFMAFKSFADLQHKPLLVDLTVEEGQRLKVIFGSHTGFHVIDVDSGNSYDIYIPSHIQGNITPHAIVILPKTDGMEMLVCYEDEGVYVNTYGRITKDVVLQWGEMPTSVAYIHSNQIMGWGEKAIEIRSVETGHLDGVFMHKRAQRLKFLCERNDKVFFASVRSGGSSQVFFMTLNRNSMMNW

Row | Compound | IC50 [1] [µM] | IC50 [2] [µM] | IC50 [3] [µM] | IC50 [4] [µM] | IC50 [5] [µM] | IC50 [6] [µM] | IC50 [7] [µM] | IC50 [8] [µM] | IC50 [9] [µM] | IC50 [10] [µM] | IC50 [11] [µM] | IC50 [12] [µM] | IC50 [13] [µM]
1 | COc1cc(F)ccc1-c1ncnc(Nc2cccc(C[S@](C)(=N)=O)c2)n1 [BAY-1143572] | > 10 | > 10 | > 10 | > 10 | > 10 | > 10 | > 10 | > 10 | – | – | – | – | –
2 | COc1cc(F)ccc1-c1cc(Nc2cc(CS(C)(=N)=O)ccn2)ncc1F (stereo not shown) [BAY-1251152] | – | – | – | – | – | – | – | – | > 10 | > 10 | > 10 | 1.09 | > 10
